pIC50, pKi: −log10 of the molar value.
Molecular target: T1, human Grb2 SH2 domain (Homo sapiens, UniProt P62993)
T1 construct: SH2 domain of human Grb2 (amino acids 58-159); made in house; host or cells: E. coli (pGEX-2T)
Assay: SH2 domain / pY peptide binding assay (ELISA-based, 96 well plate), Grb2 SH2
Conditions: for pKi: Ki calculated from IC50 by the expanded equation, Table II; for pIC50: cloned human SH2 domain fusion protein, 0.1 uM biotinylated pY peptide, Table I
Experimental: The inhibitory activity of compounds at the different human SH2 domains was determined in vitro using SH2 domains expressed as fusion proteins in E. coli. The SH2 domains used herein were the human forms of the src SH2 domain, Grb2 SH2 domain, lck SH2 domain, fyn SH2 domain, SH-PTP2 SH2 domain, p85 SH2 domain and hcp SH2 domain.
Fusion proteins having the structure GST-X-SH2 were prepared as described in the GST gene fusion kit system available from Pharmacia (New Jersey). GST is the tagging sequence glutathione s-transferase epitope (SEQ ID NO: 8) for fyn, Grb2 and SH-PTP2 and is the tagging sequence glutathione s-transferase epitope (SEQ ID NO: 9) for p85. SH2 refers to the SH2 domains of fyn, Grb2, p85 and SH-PTP2 which were expressed and purified using glutathione Sepharose 4B (Pharmacia) according to "Current Protocols in Molecular Biology", ed. FM Ausubel et al., pub. John Wiley and Sons, Inc., (1995), p 16.7.1. X is an appropriate linker, preferably of 6 to 21 base pairs, used to keep the SH2 construct in frame and complement cloning. As such, the sequence of X is not critical. One skilled in the art can readily construct the appropriate linker. The DNA sequence encoding each GST-X-SH2 fusion protein was designed such that the indicated restriction sites (BamH1 and EcoRI) flank the SH2 region. The vector used in the instant experiments was the E. coli expression vector pGEX-2T (Pharmacia) for fyn, Grb2 and SH-PTP2, and pGEX-3X (Pharmacia) for p85. Each of these vectors result in SH2 constructs having additional C-terminal amino acids as described below.
Human Grb2 SH2 domain: The sequence encoding the SH2 domain of human Grb2 (amino acids 58-159) (Lowenstein, E. et al., Cell 70, 431-442 (1992)) was cloned into the BamHI and EcoRI sites of the expression vector pGEX-2T. The SH2 domain including the additional C-terminal amino acids isoleucine-histidine-arginine-aspartate (SEQ ID NO: 25) was cloned by PCR techniques known to those skilled in the art to yield the expressed fusion protein GST-X-Grb2.
The binding assays for the SH2 domains and pY peptides were performed in an ELISA-based 96 well plate assay. In Millipore 96 well filter plates, hydrophilic Durapore® (pore size 0.65um Cat. No. MADVN6550), was added 2 ul (50% suspension) of Protein-G Sepharose (available from Pharmacia of N.J. Cat. No. 17-0618-01) and either 2 ul of 2 mg/ml of MAB178. (for gp120/SH2 domain fusion proteins src, lck and hcp) or 0.25 ul of anti-GST polyclonal antisera (available from Pharmacia of N.J.) (for GST/SH2 domain fusion proteins fyn, Grb2, p85 and SH-PTP2). 10 pmol of the subject SH2 domain fusion protein were added to their respective wells. The volume was brought to 100 ul with TBS-T (tris buffered saline plus 0.05% tween-20), incubated and shaken at room trmperature for 1 hr. then washed 1x with TBS-T (4°C). 90 ul of TBS-T were then added to each well. Specific pY biotinylated peptides were diluted to a concentration of 1.0 uM in TBS-T (these peptides can be obtained from Bachem Bioscience of Pennsylvania, Genosys Biotechnologies of Texas and California Peptide Research of California). 10 ul was aliquoted per well to yield a final concentration of 0.1 uM (approx, the Kd for each SH2 domain/peptide pair) and a final volume of 100 ul. The assay plates were incubated until equilibrium binding was attained (3 hr at 4°C with shaking). The assay plates were washed 2 X per well TBS-T (4°C), then 100 ul of SABC (Strepavidin biotinylated horseradish peroxidase complex, available from the Zymed corporation of California cat. no. 93-0043, 1 drop reagent A (streptavidin) and 1 drop of reagent B (AH-biotin conjugated-horseradish peroxidase) per 10 ml of TBS-T, incubated at 37°C for 30 minutes, then cooled to 4°C) was added per well, then incubated at 4°C for 30-60 minutes. The plates were then washed 4 X with TBS-T (4°C) (250 ul/well)/wash). […]

T1 sequence (P62993 58-159): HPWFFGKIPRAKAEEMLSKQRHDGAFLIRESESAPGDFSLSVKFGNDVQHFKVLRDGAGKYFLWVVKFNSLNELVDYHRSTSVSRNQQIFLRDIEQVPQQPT

Row | Molecule | pKi | pIC50
1 | CCCCCCNC(=O)[C@H]1CC[C@H](CNC(=O)c2ccc([N+](=O)[O-])cc2)CC1 [Compound 7, 4-nitro-benzamido-trans-4-methyl-cyclohexyl-N-hexyl carboxamide] | < 3.00 | < 3.52
2 | N[C@@H](Cc1cc(Br)c(Oc2ccc(O)c(Cc3ccc(O)nn3)c2)c(Br)c1)C(=O)O [Compound 2, L-3,5-Dibromo-3'-(6-oxo-3(1H)-pyridazinylmethyl)-thyronine] | < 3.00 | < 3.52
3 | CCCNC(=O)[C@H]1CC[C@H](CNC(=O)/C=C/c2ccc(C=O)cc2)CC1 [Compound 9, 4-formyl-E-cinnamido-trans-4-methyl-cyclohexyl-N-(propyl) carboxamide] | < 3.00 | < 3.52
4 | 4-acetamido-benzamido-trans-4-methyl-cyclohexyl-N-1-(amino-R-2-(methoxy methyl)-pyrrolidine) carboxamide [Compound 8] | 3.48 | < 3.52
5 | Cc1ccc(C(=O)c2ccc(C(=O)c3ccc(CC=O)cc3)cc2)cc1 [Compound 4, 4-[4-(4-Methylbenzoyl)benzoyl]phenylacetaldehyde] | < 3.00 | < 3.52

Continued, values first:

Row | pKi | pIC50 | Molecule
6 | < 3.00 | < 3.52 | Cc1nc2sc3c(c2c2[nH][nH]c(=O)c12)CCC1(C3)OCCO1 [Compound 3, 8,8-Ethylenedioxy-2,3,7,8,9,10-hexahydro-4-methyl-1H-benzo[b]thieno[2,3-b]pyrazolo[3,4-d]pyridin-3-one]
7 | < 3.00 | < 3.52 | Cc1nnc(SCC2=C(C(=O)O)N3C(=O)[C@@H](NC(=O)C(N)c4ccc(C(=O)O)cc4)[C@H]3SC2)s1 (stereo partly drawn) [Compound 1, 7-[D,L-α-Amino-α-(4-carboxyphenyl)acetamido]-3-[2-(5-methyl-1,3,4-thiadiazolyl)thiomethyl]Δ^3-cephem-4-carboxylic Acid]
8 | < 3.00 | < 3.52 | Cc1nc2sc3c(c2c2c1c(=O)[nH]n2C)CCC1(C3)OCCO1 [Compound 5, 1,4-Dimethyl-8,8-ethylenedioxy-2,3,7,8,9,10-hexahydro-1H-benzo[b]thieno[2,3-b]pyrazolo[3,4-d]pyridin-3-one]
9 | < 3.00 | < 3.52 | Cc1nc2sc3c(c2c2[nH][nH]c(=O)c12)CCCC3 [Compound 10, 2,3,7,8,9,10-Hexahydro-4-methyl-1H-benzo[b]thieno[2,3-b]pyrazolo[3,4-d]pyridin-3-one]

From patent EP0727211A1, “Use of src SH2 specific compounds to treat a bone resorption disease” (SMITHKLINE BEECHAM CORPORATION, priority 1995, dated 1996)
